Patent US12138256B2, “Treatment of cardiopulmonary disorders” (Bayer Aktiengesellschaft, priority 2021, dated 2024)
Read-outs that look alike come from different tables or passages of the source.

Key:
[1] = test system: total specific airway resistance (sRaw); test: Phase I, healthy male subjects, 7 days inhalation: total specific airway resistance sRaw by bodyplethysmography (C-4.1); type: in vivo, human
Experimental: (§1) Healthy White male subjects, aged 18 to 45 years and with a body mass index (BMI) above/equal 18.5 and below/equal 29.9 kg/m2 were treated in a clinical pharmacological phase I study on seven days with inhaled once daily doses of 480 μg or 1000 μg or 2000 μg (2 capsules of 1000 μg) (nominal dose) of dry powder formulations of example 2 or Placebo. The subjects inhaled the drug powder from capsules (see under D-1, e.g. tables 22 and 23) inserted into a handheld inhalation device by one deep inhalative breath. The dry powder formulation of the drug is dispersed into the airstream and fine particles are transported into the deep parts of the lung where it is intended to cause a vasodilation of the blood vessels in PH patients for a substantial reduction of increased blood pressure in the central pulmonary blood vessels in PAH patients or other subtypes of PH. This effect cannot be shown in subjects with healthy lungs. In addition inhaled drug causes a dilation of the bronchial airways and thus also improves disease states of lung diseases in PH patients with pathological bronchoconstriction. This effect was measured via bodyplethysmography as reduction of Specific Airway Resistance in healthy subjects. After the deep inhalative breath the subjects hold breath for 2 seconds, so that the dry powder drug condenses from the airstream onto the surface of the deeper lung areas where it is deposited close to its site of intended pharmacological action. The drug dissolutes over the day and equilibrates the lung via lining fluid.

[2] = Phase I, healthy male subjects, 7 days inhalation: plasma concentrations over time (C-4.1); type: in vivo, human; conditions: all doses administered
Experimental: as §1, with “After the deep inhalative breath the subjects hold breath for 2 seconds, so that the dry powder drug condenses from the airstream onto the surface of the deeper lung areas where it is deposited close to its site of intended pharmacological action. The drug dissolutes over the day and equilibrates the lung via lining fluid.” left out

[3] = Protein binding, minipig plasma (fraction unbound); type: in vitro ADME
From the text: The distribution of a test substance between Transil® (phosphatidylcholine lipid bilayers immobilized on silica beads) and plasma is a characteristic feature of any pharmaceutical compound and is dependent on its extent of binding to plasma proteins. By comparing the distribution between Transil® and buffer with the distribution between Transil® and plasma of any species of interest, the unbound fraction in the plasma of the respective animal species can be calculated in vitro. The respective plasma and buffer concentrations were determined via a radioactivity analysis. A detailed description of the method and its validation was published by Schuhmacher et al. (2).

O=C(O)c1ccc(CCN(CCc2ccccc2OCc2ccc(-c3ccc(C(F)(F)F)cc3)cc2Cl)[C@H]2CCCc3nc(C(=O)O)ccc32)cc1 [example 2, (5S)-{[2-(4-Carboxyphenyl)ethyl][2-(2-{[3-chloro-4′-(trifluoromethyl)biphenyl-4-yl]methoxy}phenyl)-ethyl]amino}-5,6,7,8-tetrahydroquinoline-2-carboxylic acid]
total specific airway resistance, mean ± SD ([1]; 480 μg, 0 D 00 H 00 M): 1.078 ± 0.375 kPa/sec
total specific airway resistance, mean ± SD ([1]; 480 μg, 0 D 02 H 00 M): 0.839 ± 0.182 kPa/sec
total specific airway resistance, mean ± SD ([1]; 480 μg, 0 D 06 H 00 M): 0.800 ± 0.187 kPa/sec
total specific airway resistance, mean ± SD ([1]; 480 μg, 2 D 02 H 00 M): 0.883 ± 0.310 kPa/sec
total specific airway resistance, mean ± SD ([1]; 480 μg, 4 D 02 H 00 M): 0.807 ± 0.200 kPa/sec
total specific airway resistance, mean ± SD ([1]; 480 μg, 6 D 04 H 00 M): 0.798 ± 0.193 kPa/sec
total specific airway resistance, mean ± SD ([1]; 480 μg, 7 D 00 H 00 M): 0.823 ± 0.274 kPa/sec
total specific airway resistance, mean ± SD ([1]; 480 μg, 7 D 02 H 00 M): 0.777 ± 0.282 kPa/sec
total specific airway resistance, mean ± SD ([1]; 480 μg, 7 D 06 H 00 M): 0.803 ± 0.280 kPa/sec
total specific airway resistance, mean ± SD ([1]; 480 μg, SCREENING): 0.844 ± 0.327 kPa/sec
total specific airway resistance, mean ± SD ([1]; 480 μg, SCREENING 2): 0.832 ± 0.280 kPa/sec
total specific airway resistance, mean ± SD ([1]; 480 μg, −0 D 18 H 00 M (pretreatment day)): 0.921 ± 0.305 kPa/sec
total specific airway resistance, mean ± SD ([1]; 480 μg, −0 D 22 H 00 M (pretreatment day)): 0.928 ± 0.392 kPa/sec
total specific airway resistance, mean ± SD ([1]; 480 μg, −1 D 00 H 00 M (pretreatment day)): 0.939 ± 0.344 kPa/sec
total specific airway resistance, mean ± SD ([1]; 1000 μg, 0 D 00 H 00 M): 0.967 ± 0.233 kPa/sec
total specific airway resistance, mean ± SD ([1]; 1000 μg, 0 D 02 H 00 M): 0.859 ± 0.143 kPa/sec
total specific airway resistance, mean ± SD ([1]; 1000 μg, 0 D 06 H 00 M): 0.824 ± 0.180 kPa/sec
total specific airway resistance, mean ± SD ([1]; 1000 μg, 2 D 02 H 00 M): 0.797 ± 0.141 kPa/sec
total specific airway resistance, mean ± SD ([1]; 1000 μg, 4 D 02 H 00 M): 0.853 ± 0.172 kPa/sec
total specific airway resistance, mean ± SD ([1]; 1000 μg, 6 D 04 H 00 M): 0.787 ± 0.168 kPa/sec
total specific airway resistance, mean ± SD ([1]; 1000 μg, 7 D 00 H 00 M): 0.917 ± 0.227 kPa/sec
total specific airway resistance, mean ± SD ([1]; 1000 μg, 7 D 02 H 00 M): 0.764 ± 0.140 kPa/sec
total specific airway resistance, mean ± SD ([1]; 1000 μg, 7 D 06 H 00 M): 0.787 ± 0.188 kPa/sec
total specific airway resistance, mean ± SD ([1]; 1000 μg, SCREENING): 0.867 ± 0.376 kPa/sec
total specific airway resistance, mean ± SD ([1]; 1000 μg, SCREENING 2): 1.009 ± 0.340 kPa/sec
total specific airway resistance, mean ± SD ([1]; 1000 μg, −0 D 18 H 00 M (pretreatment day)): 0.901 ± 0.187 kPa/sec
total specific airway resistance, mean ± SD ([1]; 1000 μg, −0 D 22 H 00 M (pretreatment day)): 0.903 ± 0.255 kPa/sec
total specific airway resistance, mean ± SD ([1]; 1000 μg, −1 D 00 H 00 M (pretreatment day)): 0.996 ± 0.194 kPa/sec
total specific airway resistance, mean ± SD ([1]; 2000 μg, 0 D 00 H 00 M): 0.947 ± 0.143 kPa/sec
total specific airway resistance, mean ± SD ([1]; 2000 μg, 0 D 02 H 00 M): 0.677 ± 0.139 kPa/sec
total specific airway resistance, mean ± SD ([1]; 2000 μg, 0 D 06 H 00 M): 0.651 ± 0.149 kPa/sec
total specific airway resistance, mean ± SD ([1]; 2000 μg, 2 D 02 H 00 M): 0.748 ± 0.155 kPa/sec
total specific airway resistance, mean ± SD ([1]; 2000 μg, 4 D 02 H 00 M): 0.709 ± 0.178 kPa/sec
total specific airway resistance, mean ± SD ([1]; 2000 μg, 6 D 04 H 00 M): 0.722 ± 0.168 kPa/sec
total specific airway resistance, mean ± SD ([1]; 2000 μg, 7 D 00 H 00 M): 0.844 ± 0.097 kPa/sec
total specific airway resistance, mean ± SD ([1]; 2000 μg, 7 D 02 H 00 M): 0.716 ± 0.089 kPa/sec
total specific airway resistance, mean ± SD ([1]; 2000 μg, 7 D 06 H 00 M): 0.730 ± 0.151 kPa/sec
total specific airway resistance, mean ± SD ([1]; 2000 μg, SCREENING): 0.899 ± 0.150 kPa/sec
total specific airway resistance, mean ± SD ([1]; 2000 μg, SCREENING 2): 0.957 ± 0.140 kPa/sec
total specific airway resistance, mean ± SD ([1]; 2000 μg, −0 D 18 H 00 M (pretreatment day)): 0.943 ± 0.245 kPa/sec
total specific airway resistance, mean ± SD ([1]; 2000 μg, −0 D 22 H 00 M (pretreatment day)): 0.933 ± 0.165 kPa/sec
total specific airway resistance, mean ± SD ([1]; 2000 μg, −1 D 00 H 00 M (pretreatment day)): 0.962 ± 0.266 kPa/sec
decrease of total specific airway resistance sRaw compared to baseline ([1]; 6 h after first dosing, all dose groups): −0.142 to −0.296 kPa/sec
persistence of measurable plasma concentration after first inhalation [2]: 48 h

O=C(O)c1ccc(CCN(CCc2ccccc2OCc2ccc(-c3ccc(C(F)(F)F)cc3)cc2Cl)[C@H]2CCCc3nc(C(=O)O)ccc32)cc1 [comparative example 11, (5S)-5-{[2-(4-carboxyphenyl)ethyl][2-(2-{[3-chloro-4′-(trifluoromethyl)[biphenyl]-4-yl]methoxy}phenyl)ethyl]amino}-5,6,7,8-tetrahydroquinoline-2-carboxylic acid]
fraction unbound ([3]; Minipig (female) plasma, read-out: Fraction unbound): 0.00348
fraction unbound ([3]; plasma (Transil beads), minipig plasma, read-out: plasma fu (fraction unbound)): 0.00348
